Patent publication US20150038527A1, “FUROPYRIDINE DERIVATIVES” (Merck Patent GmbH, priority 2012, published 2015)

The compounds below were run against T1, SYK (Homo sapiens, UniProt P43405) (assay: SYK Flash Plate Assay (enzyme assay)).
T1 construct: 2.5 nM SYK, 400 nM Biotin-Aha-Aha-KEDPDYEWPSAKK and 10 μM ATP
Format: biochemical
Method: The kinase assay is performed either as 384-well Flashplate assay (for e.g. Topcount measurement) or as 384-well Image-Flashplate assay (for LEADseeker measurement).
2.5 nM SYK, 400 nM Biotin-Aha-Aha-KEDPDYEWPSAKK and 10 μM ATP (spiked with 0.3 μCi 33P-ATP/well) are incubated in a total volume of 50 μl (60 mM Hepes, 10 mM MgCl2, 1.2 mM Dithiothreitol, 0.02% Brij35, 0.1% BSA, pH 7.5) with or without test compound for 1 hours at 30° C. The reaction is stopped with 25 μl 200 mM EDTA. After 30 Min at 30° C. the liquid is removed and each well washed thrice with 100 μl 0.9% sodium chloride solution. Non-specific reaction is determined in presence of 0.1 μM Staurosporine. Radioactivity is measured with Topcount (when using Flashplates) or with LEADseeker (when using Image-Flashplates) respectively. Results (e.g. IC50-values) are calculated with program tools provided by the IT-department (e.g. Symyx Assay Explorer, Genedata Screener).
COc1cc(-c2cc3nccc(-c4cccc(C(=O)N[C@@H]5CCC[C@H]5O)c4)c3o2)cc(OC)c1OC [Compound A12, N-((1R,2R)-2-hydroxy-cyclopentyl)-3-[2-(3,4,5-trimethoxy-phenyl)-furo[3,2-b]pyridin-7-yl]-benzamide] was tested, and the IC50 was 0.3 to 3 µM.
COc1ccc(C(N)=O)cc1-c1cc2nccc(-c3cc([C@@H](C)N)ccc3OC)c2o1 [Compound A1, 3-{7-[5-((R)-1-Amino-ethyl)-2-methoxy-phenyl]-furo[3,2-b]pyridin-2-yl}-4-methoxy-benzamide] showed an IC50 of 0.1 to 0.3 µM.
In the case of COc1cc(-c2cc3nccc(-c4cc[nH]c4)c3o2)cc(OC)c1OC [Compound A83, 7-(1H-pyrrol-3-yl)-2-(3,4,5-trimethoxy-phenyl)-furo[3,2-b]pyridine], the IC50 is reported as less than 0.1 µM.
In the case of COCC(O)CNC(=O)c1ccc(OC)c(-c2cc3nccc(-c4c(OC)cccc4OC)c3o2)c1 (stereo not drawn) [Compound A69, 3-[7-(2,6-dimethoxy-phenyl)-furo[3,2-b]pyridin-2-yl]-N-(2-hydroxy-3-methoxypropyl)-4-methoxy-benzamide], the IC50 is reported as 0.3 to 3 µM.
COc1cc(-c2cc3nccc(-c4cccc(C(=O)N[C@@H]5CCCC[C@H]5O)c4)c3o2)cc(OC)c1OC [Compound A19, N-((1R,2R)-2-hydroxy-cyclohexyl)-3-[2-(3,4,5-trimethoxy-phenyl)-furo[3,2-b]pyridin-7-yl]-benzamide] showed an IC50 of 3 to 50 µM.
COc1ccc([C@@H](C)N)cc1-c1ccnc2cc(-c3cc(OC)c(OC)c(OC)c3)oc12 [Compound A100, (R)-1-{4-methoxy-3-[2-(3,4,5-trimethoxy-phenyl)-furo[3,2-b]pyridin-7-yl]-phenyl}-ethylamine] was tested, and the IC50 was 0.3 to 3 µM.
COc1cc(-c2cc3nccc(-c4cccc(C(=O)NC[C@H](O)[C@@H](O)[C@H](O)[C@H](O)CO)c4)c3o2)cc(OC)c1OC [Compound A28, N-((2S,3R,4R,5R)-2,3,4,5,6-pentahydroxy-hexyl)-3-[2-(3,4,5-trimethoxyphenyl)-furo[3,2-b]pyridin-7-yl]-benzamide] was tested, and the IC50 was 3 to 50 µM.
COc1ccc(C(N)=O)cc1-c1cc2nccc(-c3c(OC)cccc3OC)c2o1 [Compound A62, 3-[7-(2,6-dimethoxy-phenyl)-furo[3,2-b]pyridin-2-yl]-4-methoxy-benzamide] was tested, and the IC50 was 0.3 to 3 µM.
Compound COc1cc(-c2cc3nccc(-c4nnc(CCCN)[nH]4)c3o2)cc(OC)c1OC [Compound A108, 3-{5-[2-(3,4,5-trimethoxy-phenyl)-furo[3,2-b]pyridin-7-yl]-4H-[1,2,4]triazol-3-yl}-propylamine] has an IC50 of 0.1 to 0.3 µM.
Work on COc1ccc(C(=O)NCC(C)(C)N)cc1-c1cc2nccc(-c3c(OC)cccc3OC)c2o1 [Compound A68, N-(2-amino-2-methyl-propyl)-3-[7-(2,6-dimethoxy-phenyl)-furo[3,2-b]pyridin-2-yl]-4-methoxy-benzamide] yielded an IC50 of 0.3 to 3 µM.
NC(=O)c1ccc(-c2cc3nccc(-c4cccc(C(=O)N[C@@H]5CCCC[C@@H]5N)c4)c3o2)c(F)c1 [Compound A73, 4-{7-[3-((1R,2S)-2-amino-cyclohexylcarbamoyl)-phenyl]-furo[3,2-b]pyridin-2-yl}-3-fluoro-benzamide] gave an IC50 of 3 to 50 µM.
For COC[C@@H](CNC(=O)c1cccc(-c2ccnc3cc(-c4cc(OC)c(OC)c(OC)c4)oc23)c1)NS(C)(=O)=O [Compound A10, N—((R)-2-methanesulfonylamino-3-methoxy-propyl)-3-[2-(3,4,5-trimethoxyphenyl)-furo[3,2-b]pyridin-7-yl]-benzamide], the IC50 was 0.3 to 3 µM.
COc1cc(-c2cc3nccc(-c4cccc(C(=O)N[C@@H]5CCCC[C@@H]5NS(C)(=O)=O)c4)c3o2)cc(OC)c1OC [Compound A33, N-((1R,2S)-2-methanesulfonylamino-cyclohexyl)-3-[2-(3,4,5-trimethoxyphenyl)-furo[3,2-b]pyridin-7-yl]-benzamide] gave an IC50 of 3 to 50 µM.
Compound COc1cc(-c2cc3nccc(-c4cccc(C(=O)NCC(N)C5CC5)c4)c3o2)cc(OC)c1OC (stereo not drawn) [Compound A23, N-(2-amino-2-cyclopropyl-ethyl)-3-[2-(3,4,5-trimethoxy-phenyl)-furo[3,2-b]pyridin-7-yl]-benzamide] has an IC50 of 0.3 to 3 µM.
COc1cc(-c2cc3nccc(-c4cc(C)cc(C(=O)NCCN)c4)c3o2)cc(OC)c1OC [Compound A56, N-(2-amino-ethyl)-3-methyl-5-[2-(3,4,5-trimethoxy-phenyl)-furo[3,2-b]pyridin-7-yl]-benzamide] gave an IC50 of 0.3 to 3 µM.
COc1ccc([C@H](C)N)cc1-c1ccnc2cc(-c3cc(OC)c(OC)c(OC)c3)oc12 [Compound A101, (S)-1-{4-methoxy-3-[2-(3,4,5-trimethoxy-phenyl)-furo[3,2-b]pyridin-7-yl]-phenyl}-ethylamine] gave an IC50 of 0.3 to 3 µM.
For COc1ccc(Cl)c(-c2cc3nccc(-c4cccc(C(=O)N[C@@H]5CCCC[C@@H]5N)c4)c3o2)c1 [Compound A25, N-((1R,2S)-2-amino-cyclohexyl)-3-[2-(2-chloro-5-methoxy-phenyl)-furo[3,2-b]pyridin-7-yl]-benzamide], the IC50 was 0.3 to 3 µM.
Compound COc1ccc(C(N)=O)cc1-c1cc2nccc(-c3cc[nH]c3)c2o1 [Compound A94, 4-methoxy-3-[7-(1H-pyrrol-3-yl)-furo[3,2-b]pyridin-2-yl]-benzamide] has an IC50 of 0.1 to 0.3 µM.
Cc1ccc(S(N)(=O)=O)cc1-c1cc2nccc(-c3cccc(C(=O)N[C@@H]4CCCC[C@@H]4N)c3)c2o1 [Compound A50, N-((1R,2S)-2-amino-cyclohexyl)-3-[2-(2-methyl-5-sulfamoyl-phenyl)furo[3,2-b]pyridin-7-yl]-benzamide] gave an IC50 of 0.3 to 3 µM.
Work on COc1ccc(CNCCN)cc1-c1ccnc2cc(-c3cc(OC)c(OC)c(OC)c3)oc12 [Compound A4, N1-{4-methoxy-3-[2-(3,4,5-trimethoxy-phenyl)-furo[3,2-b]pyridin-7-yl]-benzyl}-ethane-1,2-diamine] yielded an IC50 of 0.3 to 3 µM.
For COc1cc(-c2cc3nccc(-c4cc(C(=O)N[C@@H]5CCCC[C@@H]5N)ccc4F)c3o2)cc(OC)c1OC [Compound A48, N-((1R,2S)-2-mino-cyclohexyl)-4-fluoro-3-[2-(3,4,5-trimethoxy-phenyl)furo[3,2-b]pyridin-7-yl]-benzamide], the IC50 was 0.3 to 3 µM.
For COc1cc(OCCN)ccc1-c1cc2nccc(-c3cccc(C(=O)NCCO)c3)c2o1 [Compound A29, 3-{2-[4-(2-amino-ethoxy)-2-methoxy-phenyl]-furo[3,2-b]pyridin-7-yl}-N-(2-hydroxy-ethyl)-benzamide], the IC50 was 3 to 50 µM.
COc1cc(O)ccc1-c1cc2nccc(-c3ccc4[nH]cnc4c3)c2o1 [Compound A14, 4-[7-(1H-benzoimidazol-5-yl)-furo[3,2-b]pyridin-2-yl]-3-methoxy-phenol] showed an IC50 of 0.3 to 3 µM.
With COc1ccc(C(N)=O)cc1-c1cc2nccc(-c3ccnc(N[C@@H]4CCCC[C@@H]4N)c3)c2o1 [Compound A97, 3-{7-[2-((1R,2S)-2-amino-cyclohexylamino)-pyridin-4-yl]-furo[3,2-b]pyridin-2-yl}-4-methoxy-benzamide] the IC50 was less than 0.1 µM.
Work on COc1ccc(C(N)=O)cc1-c1cc2nccc(-c3cccc(C(=O)N[C@@H]4CCCC[C@@H]4N)c3)c2o1 [Compound A46, 3-{7-[3-((1R,2S)-2-amino-cyclohexylcarbamoyl)-phenyl]-furo[3,2-b]pyridin-2-yl}-4-methoxy-benzamide] yielded an IC50 of 0.3 to 3 µM.
COc1cc(-c2cc3ncc(F)c(-c4cccc(C(=O)N[C@@H]5CCCC[C@@H]5N)c4)c3o2)cc(OC)c1OC [Compound A47, N-((1R,2S)-2-amino-cyclohexyl)-3-[6-fluoro-2-(3,4,5-trimethoxy-phenyl)furo[3,2-b]pyridin-7-yl]-benzamide] showed an IC50 of 0.3 to 3 µM.
COc1cc(-c2cc3nccc(-c4cc(F)cc(C(=O)N[C@@H]5CCCC[C@@H]5N)c4)c3o2)cc(OC)c1OC [Compound A35, N-((1R,2S)-2-amino-cyclohexyl)-3-fluoro-5-[2-(3,4,5-trimethoxy-phenyl)furo[3,2-b]pyridin-7-yl]-benzamide] was tested, and the IC50 was 0.3 to 3 µM.
Work on CCc1ccc(OC)c(-c2cc3nccc(-c4cc(CC)ccc4OC)c3o2)c1 [Compound A30, 2,7-bis-(5-ethyl-2-methoxy-phenyl)-furo[3,2-b]pyridine] yielded an IC50 of 3 to 50 µM.
Work on COc1ccc(C(=O)NCCN)cc1-c1cc2nccc(-c3c(OC)cccc3OC)c2o1 [Compound A71, N-(2-amino-ethyl)-3-[7-(2,6-dimethoxy-phenyl)-furo[3,2-b]pyridin-2-yl]-4-methoxy-benzamide] yielded an IC50 of 0.3 to 3 µM.
Compound COc1cc(-c2cc3nccc(-c4ccnc(O)c4)c3o2)cc(OC)c1OC [Compound A39, 4-[2-(3,4,5-trimethoxy-phenyl)-furo[3,2-b]pyridin-7-yl]-pyridin-2-ol] has an IC50 of 0.3 to 3 µM.
For COc1ccc(C(N)=O)cc1-c1cc2nccc(-c3ccnc(NC4CCCCC4N)c3)c2o1 (stereo not drawn) [Compound A81, 3-{7-[2-(2-amino-cyclohexylamino)-pyridin-4-yl]-furo[3,2-b]pyridin-2-yl}-4-methoxy-benzamide], the IC50 was less than 0.1 µM.
Work on COc1cc(-c2cc3nccc(-c4ccc5c(c4)ncn5CCN)c3o2)cc(OC)c1OC [Compound A3, 2-{5-[2-(3,4,5-Trimethoxy-phenyl)-furo[3,2-b]pyridin-7-yl]-benzoimidazol-1-yl}-ethylamine] yielded an IC50 of 0.3 to 3 µM.
With COc1ccc(C(N)=O)cc1-c1cc2nccc(-c3ccnc(NC[C@H]4CCCNC4)c3)c2o1 [Compound A90, 4-methoxy-3-(7-{2-[((S)-1-piperidin-3-ylmethyl)-amino]-pyridin-4-yl}-furo[3,2-b]pyridin-2-yl)-benzamide] the IC50 was less than 0.1 µM.
